The target in assay [1] is NAMPT (human, recombinant, C-terminally His-tagged) (Homo sapiens, UniProt P43490). As to the kind of experiment: Time-Resolved Fluorescence Resonance Energy Transfer (TR-FRET) Binding Assay of NAMPT. The following applies: without substrates; 6.8 nM NAMPT, 200 nM probe, 3 hours equilibration. The method in brief: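 Read-out is the time-resolved FRET ratio Em520/Em495 (excitation 337 nm) between a terbium anti-His antibody (1 nM) on the enzyme and an Oregon Green 488-labelled nicotinamide-competitive inhibitor probe (200 nM). Enzyme was 6.8 nM, DMSO 2%, pH 7.5 HEPES buffer; 3 h room-temperature equilibration preceded reading.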
Chain of NAMPT (human, recombinant, C-terminally His-tagged) (P43490 whole entry): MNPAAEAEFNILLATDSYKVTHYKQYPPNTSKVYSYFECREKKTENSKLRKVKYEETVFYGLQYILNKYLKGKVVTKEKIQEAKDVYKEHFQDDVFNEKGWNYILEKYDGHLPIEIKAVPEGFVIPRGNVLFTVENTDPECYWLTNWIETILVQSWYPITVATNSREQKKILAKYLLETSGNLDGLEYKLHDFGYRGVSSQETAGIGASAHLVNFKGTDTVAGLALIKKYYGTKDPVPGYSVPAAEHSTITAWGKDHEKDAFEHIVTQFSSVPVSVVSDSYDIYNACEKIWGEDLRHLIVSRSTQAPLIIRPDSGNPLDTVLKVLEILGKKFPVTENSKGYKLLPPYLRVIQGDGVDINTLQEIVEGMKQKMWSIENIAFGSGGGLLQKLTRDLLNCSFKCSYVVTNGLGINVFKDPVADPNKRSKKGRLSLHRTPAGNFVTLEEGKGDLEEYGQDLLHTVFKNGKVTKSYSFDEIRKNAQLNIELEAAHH
A general note: TR-FRET usually uses a lanthanide donor and a delayed reading to cut background.

Another assay deals with NAMPT (Homo sapiens, UniProt P43490). As to the kind of experiment: TR-FRET Binding Assay of NAMPT with PRPP. Conditions: with 200 μM PRPP and 2.5 mM ATP; 2 nM NAMPT, 2 nM probe, 16 hours equilibration. The method in brief: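 NAMPT 2 nM + probe 2 nM + Tb-anti-His Ab 1 nM; PRPP 200 μM, ATP 2.5 mM, DMSO 2%; 16 h equilibration before TR-FRET read.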
Chain of NAMPT (P43490 whole entry): as above
The subject of another assay is PC3 cells. As to the kind of experiment: NAMPT Cell Proliferation Assay. The class given is cell-based. The following applies: Homo sapiens, PC-3, 120 h, 5 days incubation, cell viability by Cell Titer Glo. The method, boiled down:
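Proliferation of PC3 cells treated 5 days with a 10-fold compound series (top 10 μM) was quantified by Cell Titer Glo luminescence; IC50s were fitted from percent inhibition.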

25 compounds from patent US9187472B2 (AbbVie Inc., priority 2012, dated 2015) can be followed below.

The structures appear in SMILES notation.

Usually IC50 stands for the concentration at which inhibition is half-maximal. Regarding `O=C(NCc1ccn2ccnc2c1)c1ccc(C2CCN(C(=O)CC3CCOCC3)C2)cc1` (stereo not drawn) [Example 378, N-(imidazo[1,2-a]pyridin-7-ylmethyl)-4-[1-(tetrahydro-2H-pyran-4-ylacetyl)pyrrolidin-3-yl]benzamide], the IC50 is 897 nM in assay [1], 0.169 nM on NAMPT and above 10000 nM in the assay on PC3 cells.
Regarding `CC(C)OCC(=O)Nc1ccc(NC(=O)NCc2ccc3nccn3c2)cc1` [Example 276, N-(4-{[(imidazo[1,2-a]pyridin-6-ylmethyl)carbamoyl]amino}phenyl)-2-(propan-2-yloxy)acetamide], the IC50 in assay [1] came to 107 nM; at NAMPT, 0.468 nM; in the assay with PC3 cells, 38.1 nM.
For the compound `O=C(Nc1ccc(C(=O)NCC2CCCC2)cc1)Nc1ccc2nccn2c1` [Example 8, N-(cyclopentylmethyl)-4-[(imidazo[1,2-a]pyridin-6-ylcarbamoyl)amino]benzamide], the figures for the concentration for half-maximal inhibition (IC50) (in assay [1]; on NAMPT; in the assay with PC3 cells) were 114 nM, 0.702 nM and 70.2 nM, respectively.
Take `O=C(Nc1ccc(C2=CCN(C(=O)CC3CCOC3)CC2)cc1)Nc1ccc2nccn2c1` (stereo not drawn) [Example 28, 1-imidazo[1,2-a]pyridin-6-yl-3-{4-[1-(tetrahydrofuran-3-ylacetyl)-1,2,3,6-tetrahydropyridin-4-yl]phenyl}urea]: the results for the IC50 (in assay [1]; on NAMPT; with PC3 cells) were 152 nM, 0.19 nM and 14.2 nM, respectively.
On to `CC(C)(C)OC(=O)N1CCN(CCn2cc(-c3ccc(C(=O)NCc4ccn5ccnc5c4)s3)cn2)CC1` [Example 808, tert-butyl 4-[2-(4-{5-[(imidazo[1,2-a]pyridin-7-ylmethyl)carbamoyl]thiophen-2-yl}-1H-pyrazol-1-yl)ethyl]piperazine-1-carboxylate], for which the IC50 in assay [1] was 94.4 nM; on NAMPT it was 0.568 nM; in the assay on PC3 cells, 1.1 nM.
In the same order, the values of `CC(C)OCC(=O)Nc1ccc(C(=O)NCc2ccn3ccnc3c2)cc1` [Example 211, N-(imidazo[1,2-a]pyridin-7-ylmethyl)-4-{[(propan-2-yloxy)acetyl]amino}benzamide] are 1660 nM, 0.453 nM and 950 nM.
For `Cc1ccc(C(=O)N2CC(c3ccc(C(=O)NCc4ccn5ccnc5c4)cc3)C2)cc1` [Example 650, N-(imidazo[1,2-a]pyridin-7-ylmethyl)-4-[1-(4-methylbenzoyl)azetidin-3-yl]benzamide], the 50% inhibitory concentration (IC50) in assay [1] turned out to be 153 nM; on NAMPT, 1.11 nM; in the assay with PC3 cells, 58.3 nM.
`O=C(NCc1ccc2nccn2c1)c1ccc(OC2CCN(C(=O)CC(F)(F)F)CC2)cc1` [Example 170, N-(imidazo[1,2-a]pyridin-6-ylmethyl)-4-{[1-(3,3,3-trifluoropropanoyl)piperidin-4-yl]oxy}benzamide]: the IC50 in assay [1] came to 3360 nM; at NAMPT it was 2.25 nM; in the assay with PC3 cells it was 604 nM.
Take `O=C(NCc1ccn2ccnc2c1)c1ccc(C2CCN(C(=O)CC3CCCCC3)C2)cc1` (stereo not drawn) [Example 607, 4-[1-(cyclohexylacetyl)pyrrolidin-3-yl]-N-(imidazo[1,2-a]pyridin-7-ylmethyl)benzamide]: the IC50 was found to be 478 nM in assay [1], 0.796 nM on NAMPT and 74.4 nM in the assay on PC3 cells.
With `CC(C)OCC(=O)N1CCC(Oc2ccc(C(=O)NCc3ccn4ccnc4c3)cc2)CC1` [Example 416, N-(imidazo[1,2-a]pyridin-7-ylmethyl)-4-({1-[(propan-2-yloxy)acetyl]piperidin-4-yl}oxy)benzamide], the IC50 in assay [1] amounted to 2500 nM; on NAMPT, 0.318 nM; with PC3 cells, 659 nM.
Consider `CC(C)COC(=O)N1CCC(c2ccc(C(=O)NCc3ccn4ccnc4c3)s2)CC1` [Example 571, 2-methylpropyl 4-{5-[(imidazo[1,2-a]pyridin-7-ylmethyl)carbamoyl]thiophen-2-yl}piperidine-1-carboxylate], for which the figures for the IC50 (in assay [1]; at NAMPT; in the assay on PC3 cells) were 41.7 nM, 0.494 nM and 22.9 nM, respectively.
With `Cc1cc(CC(=O)N(C[C@H]2CCCO2)c2ncc(C(=O)NCc3ccn4ccnc4c3)s2)no1` [Example 193, N-(imidazo[1,2-a]pyridin-7-ylmethyl)-2-{[(5-methyl-1,2-oxazol-3-yl)acetyl][(2R)-tetrahydrofuran-2-ylmethyl]amino}-1,3-thiazole-5-carboxamide], the IC50 in assay [1] is 516 nM; on NAMPT, 0.266 nM; with PC3 cells it was 19.9 nM.
On to `CC[C@@H](O)Cn1cc(-c2ccc(C(=O)NCc3ccc4nccn4c3)s2)cn1` [Example 180, 5-{1-[(2R)-2-hydroxybutyl]-1H-pyrazol-4-yl}-N-(imidazo[1,2-a]pyridin-6-ylmethyl)thiophene-2-carboxamide], for which the results for the IC50 (in assay [1]; on NAMPT; in the assay with PC3 cells) were 584 nM, 0.266 nM and 9.12 nM, respectively.
In the case of `O=C(NCc1ccn2ccnc2c1)c1ccc(-c2cnn(CC3CCOCC3)c2)s1` [Example 265, N-(imidazo[1,2-a]pyridin-7-ylmethyl)-5-[1-(tetrahydro-2H-pyran-4-ylmethyl)-1H-pyrazol-4-yl]thiophene-2-carboxamide], the results for the IC50 (in assay [1]; at NAMPT; in the assay on PC3 cells) were 33.1 nM, 0.266 nM and 1.59 nM, respectively.
With `O=C(NCc1ccn2ccnc2c1)Nc1ccc(OC2CCN(C(=O)c3ccc(F)c(F)c3)CC2)cc1` [Example 729, 1-(4-{[1-(3,4-difluorobenzoyl)piperidin-4-yl]oxy}phenyl)-3-(imidazo[1,2-a]pyridin-7-ylmethyl)urea], the figures for the IC50 (in assay [1]; at NAMPT; in the assay on PC3 cells) were 428 nM, 0.765 nM and 45.9 nM, respectively.
As to `COc1ccccc1C(=O)N1CCC(c2ccc(C(=O)NCc3ccn4ccnc4c3)cc2)CC1` [Example 539, N-(imidazo[1,2-a]pyridin-7-ylmethyl)-4-[1-(2-methoxybenzoyl)piperidin-4-yl]benzamide], the IC50 in assay [1] is 98.5 nM; on NAMPT, 0.31 nM; in the assay on PC3 cells, 3.47 nM.
For `O=C(NCc1ccn2ccnc2c1)c1ccc(C2CCN(C(=O)c3cnccn3)C2)s1` (stereo not drawn) [Example 792, N-(imidazo[1,2-a]pyridin-7-ylmethyl)-5-[1-(pyrazin-2-ylcarbonyl)pyrrolidin-3-yl]thiophene-2-carboxamide], the values for the IC50 (in assay [1]; at NAMPT; with PC3 cells) were 116 nM, 0.5 nM and 9.57 nM, respectively.
`O=C(NCc1ccn2ccnc2c1)c1ccc(C2CCN(C(=O)Cc3ccccc3)C2)cc1` (stereo not drawn) [Example 731, N-(imidazo[1,2-a]pyridin-7-ylmethyl)-4-[1-(phenylacetyl)pyrrolidin-3-yl]benzamide]: the half-inhibitory concentration (IC50) was found to be 223 nM in assay [1], 0.391 nM on NAMPT and 50 nM in the assay with PC3 cells.
On to `COCCn1cc(-c2ccc(NC(=O)NCc3ccn4ccnc4c3)cc2)cn1` [Example 673, 1-(imidazo[1,2-a]pyridin-7-ylmethyl)-3-{4-[1-(2-methoxyethyl)-1H-pyrazol-4-yl]phenyl}urea], for which the IC50 in assay [1] stood at 452 nM; on NAMPT, 0.697 nM; in the assay with PC3 cells, 122 nM.
Consider `O=C(CC1CCCC1)Nc1ccc(NC(=O)NCc2ccc3nccn3c2)cc1` [Example 60, 2-cyclopentyl-N-(4-{[(imidazo[1,2-a]pyridin-6-ylmethyl)carbamoyl]amino}phenyl)acetamide], for which the half-inhibitory concentration (IC50) in assay [1] came to 8.61 nM; at NAMPT, 1.49 nM; with PC3 cells, 9.58 nM.
In the same order, the values of `CC(=O)N1CCC(Oc2ccc(C(=O)NCc3ccc4nccn4c3)cc2)CC1` [Example 160, 4-[(1-acetylpiperidin-4-yl)oxy]-N-(imidazo[1,2-a]pyridin-6-ylmethyl)benzamide] are 3220 nM, 1.26 nM and 915 nM.
In the same order, the values of `Cn1ccc(C(=O)N2CC(c3ccc(C(=O)NCc4ccn5ccnc5c4)cc3)C2)n1` [Example 642, N-(imidazo[1,2-a]pyridin-7-ylmethyl)-4-{1-[(1-methyl-1H-pyrazol-3-yl)carbonyl]azetidin-3-yl}benzamide] are 454 nM, 0.532 nM and 94.9 nM.
As for `CC(C)(C)CC(=O)N1CCC(c2ccc(C(=O)NCc3ccn4ccnc4c3)cc2)CC1` [Example 499, 4-[1-(3,3-dimethylbutanoyl)piperidin-4-yl]-N-(imidazo[1,2-a]pyridin-7-ylmethyl)benzamide], the IC50 in assay [1] is 113 nM; on NAMPT, 0.38 nM; in the assay on PC3 cells, 2.19 nM.
Take `O=C(NCc1ccn2ccnc2c1)Nc1ccc(C2CCN(C(=O)C3COCCO3)CC2)cc1` (stereo not drawn) [Example 222, 1-{4-[1-(1,4-dioxan-2-ylcarbonyl)piperidin-4-yl]phenyl}-3-(imidazo[1,2-a]pyridin-7-ylmethyl)urea]: the IC50 in assay [1] turned out to be 112 nM; at NAMPT, 0.192 nM; in the assay on PC3 cells, 4.08 nM.
Turning to `O=C(NCc1ccn2ccnc2c1)Nc1ccc(C2CN(C(=O)CC3CCOCC3)C2)cc1` [Example 461, 1-(imidazo[1,2-a]pyridin-7-ylmethyl)-3-{4-[1-(tetrahydro-2H-pyran-4-ylacetyl)azetidin-3-yl]phenyl}urea], the values for the IC50 (in assay [1]; at NAMPT; in the assay on PC3 cells) were 459 nM, 0.169 nM and 31.4 nM, respectively.
